Earlier results as cited in patent publication US12270126B2, “Wound dressing” (University of Central Oklahoma, priority 2019, dated 2025).

Assays:
[1] = system: Saccharomyces cerevisiae
[2] = system: E. coli
[3] = system: Methicillin-resistant S. aureus (MRSA)
[4] = system: Bacillus subtilis (B. subtilis)

Measured: inhibitory effect on microorganism

Cc1ccc(C(C)C)cc1O [carvacrol]
inhibitory effect: all assays above

Cc1ccc(C(C)C)c(O)c1 [thymol]
inhibitory effect: all assays above
